Test results published in patent US9974305B2, “Fungicidal or bactericidal composition, and method for controlling diseases” (NISSAN CHEMICAL INDUSTRIES, LTD., priority 2014, dated 2018).
Read-outs that look alike come from different tables or passages of the source.

What was measured:
[1] = system: cucumber gray mold fungus (Botrytis cinerea); test: Preventive test against gray mold on cucumber cotyledon leaves, spray treatment, preventive value and Colby expected value (Test Examples 1-4); assay type: in vivo; settings: single compound; for pest or weed control at 3 ppm: 3 ppm spray
Method: Using the following compound listed in Table 2 (the active ingredient A) and the compound listed in Table 5 through Table 15 (active ingredient B), an agent was prepared in accordance with the above Formulation Example. This agent was diluted with water to a predetermined concentration to obtain a test solution. Then, cucumber (variety: Sagami-hanjiro) was planted in a plastic pot of 90 cm^3, and in the cotyledon stage, 5 ml of the obtained test solution, was sprayed by a spray gun and air-dried. Thereafter, the treated leaf was cut off and placed in a plastic container which filled approximately 0.5 cm in depth water. A suspension of conidia of cucumber gray mold fungus (Botrytis cinerea) and a dissolved PDA culture medium were mixed at a ratio of 1:1 (mass ratio), and the mixture was dropped to inoculate the treated leaf with 30 μl. After the inoculation, the plastic container was sealed and left at 20° C. for 3 days, the ratio of the formed lesion occupying the inoculated leaf was measured, and the preventive value was calculated in accordance with the following calculation formula. Preventive value=[1−(treated plot lesion area ratio/untreated plot lesion area ratio)]×100
Further, from the preventive value at each agent concentration, synergy was calculated by using the Colby method (Colby S. R. 1976, Weeds 15, 20-22). The calculation method is as follows. E=X+Y−XY/100
X: preventive value of A agent at x concentration
Y: preventive value of B agent at y concentration
E: theoretical value expected by treatment of the mixture of A agent and B agent.
The obtained result is analyzed to be synergy if the observed value is larger than the expected value, to be antagonism if the expected value is larger than the observed value, and to be an additive effect if the observed value and the expected value are the same.
Using the following compound listed in Table 2 (active ingredient A) and the following compound listed in Table 5 through Table 15 (active ingredient B) as active ingredients, a preventive test against gray mold was conducted in accordance with the method described in Test Example 1.
Using the following compound listed in Table 2 (active ingredient A) and the following compound listed in Table 5 or Table 6 (active ingredient B) as active ingredients, a preventive test against gray mold was conducted in accordance with the method described in Test Example 1.
Using the following compound listed in Table 2 (active ingredient A) and the following compound listed in Table 6 through Table 16 (active ingredient B) as active ingredients, a preventive test against gray mold was conducted in accordance with the method described in Test Example 1.

[2] = system: wheat glume blotch (Leptosphaeria nodorum); test: Efficacy test on wheat glume blotch, spray treatment and prevention test (Test Example 8); assay type: in vivo; settings: spray, lesion area ratio; for Preventive value: single compound 1 ppm; for pest or weed control at 50 ppm: single compound 50 ppm
Method: An agent comprising the following compound listed in Table 2 (active ingredient A) and the following compound listed in Table 6, Table 11 or Table 15 (active ingredient B) as active ingredients, was prepared in accordance with the above Formulation Example. This agent was diluted with water to a predetermined concentration to obtain a test solution. Then, to seedlings of wheat (variety: Haruyutaka) at the 1-leaf stage, seeded in a pot with a diameter of 7 cm, with 5 seeds per pot, and grown for 7 days, the test solution was applied by a spray gun in an amount of 5 ml per pot, for treatment. One day after the treatment, a spore suspension (1×100,000 cfu/ml) of wheat glume blotch (Leptosphaeria nodorum) was spray-inoculated, and the pot was placed in a moist chamber set in temperature of 20° C. and humidity more than 95% RH for 48 hours. After placing the pot in a glass greenhouse for 7 days, the ratio of the formed lesion area occupying the inoculated leaves was measured, and the preventive value was calculated in accordance with the following formula. Preventive value=[1−(treated plot lesion area ratio/untreated plot lesion area ratio)]×100
Further, from the preventive value for each agent concentration, synergy was calculated by using the Colby method (Colby S. R. 1976, Weeds 15, 20-22).

[3] = Botrytis cinerea, 72 h, Test Example 1, 50 ppm spray, read-out: Preventive value
[4] = Botrytis cinerea, 72 h, Test Example 2, 50 ppm spray, read-out: Preventive value
[5] = Botrytis cinerea, 72 h, Test Example 4, 10 ppm spray, read-out: Preventive value
[6] = Parastagonospora nodorum, read-out: Preventive value
[7] = Botrytis cinerea, 72 h, Test Example 1, read-out: Preventive value
[8] = Botrytis cinerea, 72 h, Test Example 2, read-out: Preventive value

mancozeb [L16]
Preventive value ([1]; Test Example 4, 100 ppm spray): 45

N#CC(CCc1ccc(Cl)cc1)(Cn1cncn1)c1ccccc1 (stereo not shown) [H13, fenbuconazole]
pest or weed control at 50 ppm [1, 3]: 63% | pest or weed control at 50 ppm [1, 4]: 60% | pest or weed control at 25 ppm ([2]; Parastagonospora nodorum, single compound 25 ppm, read-out: Preventive value): 50%

COC(=O)NC(=S)Nc1ccccc1NC(=S)NC(=O)OC [B05, thiophanate-methyl]
pest or weed control at 10 ppm ([1]; Botrytis cinerea, 72 h, Test Example 3, 10 ppm spray, read-out: Preventive value): 60%

O=c1c2cc(F)ccc2nc(-n2cncn2)n1-c1ccc(Cl)cc1Cl [H15, fluquinconazole]
pest or weed control at 10 ppm [1, 5]: 55%

C[Si](Cn1cncn1)(c1ccc(F)cc1)c1ccc(F)cc1 [H16, flusilazole]
pest or weed control at 10 ppm [1, 5]: 50%

Fc1ccc([C@]2(Cn3cncn3)O[C@H]2c2ccccc2Cl)cc1 (racemic) [Compound No. H10, epoxiconazole]
Preventive value ([1]; Test Example 1, 10 ppm spray): 60 | Preventive value ([1]; Test Example 2, 10 ppm spray): 50 | Preventive value [2]: 50

N#Cc1c(Cl)c(Cl)c(Cl)c(C#N)c1Cl [L25, chlorothalonil]
pest or weed control at 50 ppm [1, 3]: 50% | pest or weed control at 50 ppm [1, 4]: 55% | pest or weed control at 50 ppm [2, 6]: 50%

CC(C)CC(C)c1sccc1NC(=O)c1cn(C)nc1C(F)(F)F (stereo not shown) [C15, penthiopyrad]
pest or weed control at 5 ppm ([1]; Botrytis cinerea, 72 h, Test Example 3, 5 ppm spray): 60%

CO/C=C(/C(=O)OC)c1ccccc1COc1cccc(C(F)(F)F)n1 [C32, picoxystrobin, reference compound]
Preventive value ([1]; Test Example 4, 10 ppm spray): 30 | Preventive value [2]: 50

O=C(Nc1ccccc1-c1ccc(Cl)cc1)c1cccnc1Cl [C03, boscalid]
pest or weed control at 3 ppm [1, 7]: 60% | pest or weed control at 3 ppm [1, 8]: 58%

CC(C1CC1)C(O)(Cn1cncn1)c1ccc(Cl)cc1 (stereo not shown) [H05, cyproconazole]
pest or weed control at 10 ppm [1, 5]: 45%

Cn1cc(C(=O)Nc2ccccc2C2CC2C2CC2)c(C(F)F)n1 (stereo not shown) [C16, sedaxane]
Preventive value ([1]; Test Example 3, 10 ppm spray): 50

CCCCNC(=O)n1c(NC(=O)OC)nc2ccccc21 [B01, benomyl]
pest or weed control at 3 ppm [1, 7]: 50% | pest or weed control at 3 ppm [1, 8]: 45%

Cn1cc(C(=O)Nc2ccc(F)cc2-c2ccc(Cl)c(Cl)c2)c(C(F)F)n1 [C02, bixafen]
Preventive value ([1]; Test Example 3, 50 ppm spray): 70

Cn1cc(C(=O)Nc2cccc3c2[C@@H]2CC[C@H]3C2=C(Cl)Cl)c(C(F)F)n1 (racemic) [C01, benzovindiflupyr]
Preventive value ([1]; Test Example 3, 5 ppm spray): 60

CON=C(C(=O)OC)c1ccccc1CON=C(C)c1cccc(C(F)(F)F)c1 [C39, trifloxystrobin, reference compound]
pest or weed control at 10 ppm [1, 5]: 40% | pest or weed control at 50 ppm [2, 6]: 70%

CNC(=O)/C(=N/OC)c1ccccc1CO/N=C(C)/C(=N/OC)C(/C)=N/OC [C31, orysastrobin]
Preventive value ([1]; Test Example 4, 50 ppm spray): 40

Cc1nn(C)c(F)c1C(=O)Nc1ccccc1C(C)CC(C)C (stereo not shown) [C14, penflufen]
Preventive value ([1]; Test Example 3, 100 ppm spray): 65

Cc1cc(OC(C)C)ccc1C(=O)C(C)(C)NC(=O)c1sccc1C [C10, isofetamid]
Preventive value ([1]; Test Example 3, 5 ppm spray): 45

CCOc1ccc(NC(=O)OC(C)C)cc1OCC [B06, diethofencarb]
pest or weed control at 50 ppm ([1]; Botrytis cinerea, 72 h, read-out: Preventive value, Test Example 3, 50 ppm spray): 45%

OC(Cc1ccccc1Cl)(Cn1nc[nH]c1=S)C1(Cl)CC1 (stereo not shown) [Compound No. H31, prothioconazole, reference compound]
pest or weed control at 10 ppm [1, 5]: 50% | pest or weed control at 50 ppm [2, 6]: 30%

CC1COC(Cn2cncn2)(c2ccc(Oc3ccc(Cl)cc3)cc2Cl)O1 (stereo not shown) [H07, difenoconazole]
pest or weed control at 10 ppm [1, 5]: 50%

Cc1nn(C)c(Cl)c1C(=O)Nc1cccc2c1C(C)OC2(C)C (stereo not shown) [C09, furametpyr]
Preventive value ([1]; Test Example 3, 100 ppm spray): 55
